Assays:
GR [1] = assay: GR expression (RT-qPCR and Western blot) in LNCaP cells; details: 3 µM, 24 h, 1 nM R1881
Procedure: (§5) LNCaP and VCaP cells were seeded in 6-well plates (10^6 and 2 × 10^6 cells per well, respectively) and, 48 h later, complete medium was replaced by charcoal-stripped medium with 5% FBS. Cells were then treated for 24 h with the tested compounds, and RNA extraction was performed using the Quick RNA Miniprep kit (Zymo-Research, Irvine, CA, USA), according to the manufacturer’s protocol. Reverse transcription was performed with 0.5 µg total RNA using the SuperScript III reverse transcriptase kit (ThermoFisher, Waltham, MA, USA), according to the manufacturer’s protocol, in a final volume of 20 µL. The levels of genes transcripts were measured by real time PCR using a LightCycler 480 system (Roche Life Science, Penzberg, Germany) in the presence of SYBRGreen (SYBR® Premix Ex Taq^tm) and the following primers: FKBP5, sense 5′-[sequence]-3′; antisense 5′-[sequence]-3′; PSA, sense 5′-[sequence]-3′; antisense 5′-[sequence]-3′; TMPRSS2, sense 5′-[sequence]-3′, antisense 5′-[sequence]-3′; GR, sense 5′-[sequence]-3′, antisense 5′-[sequence]-3′; HPRT, sense 5′-[sequence]-3′; antisense 5′-[sequence]-3′; GAPDH, sense 5′-[sequence]-3′; antisense 5′-[sequence]-3′. Expression levels were evaluated with the ΔΔCt method and were normalized to GAPDH. Results are expressed as mRNA expression, relative to control (untreated cells), and are the mean ± SEM of 3 independent experiments. […]

LNCaP spheroids = system: LNCaP spheroids
Procedure: (§1) prostate cancer cells. GAPDH was used as a loading control.
(§2) Spheroids were treated for 7 days with the indicated concentrations of each drug, stained with PI (1 mg/mL) for 30 min and […] was evaluated using the Celigo® imaging system. Results are expressed as mortality ratios as compared to untreated spheroids (set at 1). Each point represent s the m ean ± SEM of 3 […]
(§3) Mortality (ratio/control)
(§4) [Harmol Hydrochloride] (M)

VCaP spheroids = system: VCaP spheroids
Procedure: as §1, §2, §3, §4

LNCaP cells = assay: Spheroid growth (CellTiter-Glo), LNCaP; details: 7 days, 1 nM R1881
Procedure: (§6) Spheroids were generated by seeding prostate cancer cells in non-adherent U-bottom 96-well plates in medium supplemented with 5% of charcoal stripped FBS. VCaP, LNCaP-FGC, DU145, or PC3 cells were seeded in duplicate at a density of 2000, 500, 600, and 600 cells per well, respectively. […] Cell death was first evaluated by the incubation of the spheroids with propidium iodide (1 mg/mL) for 30 min, and quantitation of red fluorescence was performed using a Celigo® imaging cytometer (Nexcelom Bioscience). […] Then, proliferation was assessed following cell lysis with the CellTiter-Glo® Luminescent Cell Viability Assay reagent (Promega, Charbonnière, France), according to the manufacturer protocol. Quantification of the luminescence was performed using a MicroBeta Wallac luminometer (PerkinElmer), and percent growth was calculated relative to DMSO treated cells.
(§7) Spheroids were treated for 7 days, and cell death was evaluated by propidium iodide staining and fluorescence quantification, using the Celigo imaging system. Growth inhibition was then assessed by cell lysis with CellTiter-Glo, and quantification of the luminescence using a MicroBeta Wallac luminometer. Percent growth was calculated relative to dimethyl sulfoxide (DMSO) treated cells (n = 3 ± SEM).

VCaP cells = assay: Spheroid growth (CellTiter-Glo), VCaP; details: 7 days, 1 nM R1881
Procedure: as §6, §7

GR [2] = assay: GR expression (RT-qPCR and Western blot) in VCaP cells; details: 3 µM, 24 h, 1 nM R1881
Procedure: as §5

[3] = target: T1, mineralocorticoid receptor (MR) (Homo sapiens, UniProt P08235); assay: Transactivation assay in HG5LN MR cells; assay type: cell-based; details: 16 h, 1 nM aldosterone, highest concentrations used (>1 µM)
T1 construct: expressed in transfected cells
T1 sequence (P08235 726-964 limits assumed): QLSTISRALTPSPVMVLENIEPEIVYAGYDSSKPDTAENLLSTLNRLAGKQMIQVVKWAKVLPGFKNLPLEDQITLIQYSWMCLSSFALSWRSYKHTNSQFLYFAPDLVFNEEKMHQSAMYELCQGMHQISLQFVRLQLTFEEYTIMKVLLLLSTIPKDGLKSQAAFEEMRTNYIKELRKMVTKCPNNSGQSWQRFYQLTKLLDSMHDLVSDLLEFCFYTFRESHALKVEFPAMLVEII
Excerpt: HG5LN MR and HG5LN PXR luciferase reporter cell lines were obtained by stable expression of individual ligand binding domains fused to GAL4 DNA binding domain in HG5LN (HeLa GAL4REx5-luciferase) cells, as previously described. HELN PR cells were obtained by stably expressing PR with the ERα DNA binding domain in HELN (HeLa ERE-luciferase) cells and HMLN GR cells were obtained by stable co-transfection of HeLa cells with a plasmid encoding for a glucocorticoid responsive gene (MMTV-Luc-SV-Neo) and a glucocorticoid receptor expressing plasmid, as previously described.
Agonistic activities were evaluated in HMLN GR, HELN PR, HG5LN MR, and HG5LN PXR cells, using dexamethasone 100 nM, R5020 100 nM, aldosterone 100 nM, and SR12813 3 μM as a positive control, respectively. […] RU486 was used as a control antagonist for GR and PR, and spironolactone for MR.
HMLN glucocorticoid receptor (GR), HG5LN mineralocorticoid receptor (MR), HELN progesterone receptor (PR) and HG5LN PXR cells were used to evaluate the antagonistic effect of the tested compounds on (A) the glucocorticoid receptor (GR), (B) the mineralocorticoid receptor (MR), (C) the progesterone receptor (PR) and (D) the agonistic activity towards the pregnane X receptor (PXR). […]

[4] = system: AR target genes TMPRSS2, FKBP5, PSA; assay: RT-qPCR of AR target genes in LNCaP cells; details: 3 µM, 24 h, 1 nM R1881
Procedure: (§8) LNCaP and VCaP cells were seeded in 6-well plates (10^6 and 2 × 10^6 cells per well, respectively) and, 48 h later, complete medium was replaced by charcoal-stripped medium with 5% FBS. Cells were then treated for 24 h with the tested compounds, and RNA extraction was performed using the Quick RNA Miniprep kit (Zymo-Research, Irvine, CA, USA), according to the manufacturer’s protocol. Reverse transcription was performed with 0.5 µg total RNA using the SuperScript III reverse transcriptase kit (ThermoFisher, Waltham, MA, USA), according to the manufacturer’s protocol, in a final volume of 20 µL. The levels of genes transcripts were measured by real time PCR using a LightCycler 480 system (Roche Life Science, Penzberg, Germany) in the presence of SYBRGreen (SYBR® Premix Ex Taq^tm) and the following primers: FKBP5, sense 5′-[sequence]-3′; antisense 5′-[sequence]-3′; PSA, sense 5′-[sequence]-3′; antisense 5′-[sequence]-3′; TMPRSS2, sense 5′-[sequence]-3′, antisense 5′-[sequence]-3′; GR, sense 5′-[sequence]-3′, antisense 5′-[sequence]-3′; HPRT, sense 5′-[sequence]-3′; antisense 5′-[sequence]-3′; GAPDH, sense 5′-[sequence]-3′; antisense 5′-[sequence]-3′. Expression levels were evaluated with the ΔΔCt method and were normalized to GAPDH. Results are expressed as mRNA expression, relative to control (untreated cells), and are the mean ± SEM of 3 independent experiments.

[5] = system: AR target genes TMPRSS2, FKBP5, PSA; assay: RT-qPCR of AR target genes in VCaP cells; details: 3 µM, 24 h, 1 nM R1881
Procedure: as §8

[6] = set-up: method as in PMID 20398925; details: cited from earlier work

In the case of CNC(=O)c1ccc(N2C(=S)N(c3ccc(C#N)c(C(F)(F)F)c3)C(=O)C2(C)C)cc1F [enzalutamide, reference compound], the “Expression of GR at the mRNA and protein levels” value (GR [1]) is reported as “neither harmol nor enzalutamide treatment could significantly alter the expression of GR”, the “Cell death (propidium iodide positive cells) versus untreated spheroids” value (LNCaP spheroids) is reported as “did not significantly affect the number of propidium iodide positive cells” and the “Cell death (propidium iodide positive cells) versus untreated spheroids” value (VCaP spheroids) is reported as “did not significantly affect the number of propidium iodide positive cells”. For the same molecule, the “Growth of LNCaP spheroids” value (LNCaP cells) was “could inhibit the growth of VCaP and LNCaP cells, tough to a lesser extent”, the “Growth of VCaP spheroids” value (VCaP cells) was “could inhibit the growth” and the “Expression of GR at the mRNA and protein levels” value (GR [2]) was “neither harmol nor enzalutamide treatment could significantly alter the expression of GR”. For the same molecule, the “Antagonistic activity towards MR” value [3] was “small antagonistic activity”, the “R1881-mediated expression of AR target genes TMPRSS2, FKBP5, PSA” value [4] was “more pronounced for enzalutamide than for harmol hydrochloride” and the “R1881-mediated expression of AR target genes TMPRSS2, FKBP5, PSA” value [5] was “more pronounced for enzalutamide than for harmol hydrochloride”. The “Cmin required to saturate binding to AR” value [6] was 10 to 30 µM.

From PMC7349874, “High Content Screening Using New U2OS Reporter Cell Models Identifies Harmol Hydrochloride as a Selective and Competitive Antagonist of the Androgen Receptor” (Cells, 2020)
